Test results reported in patent publication US7557133B2, “Caspase inhibitors containing isoxazoline ring” (LG Life Sciences Ltd., priority 2003, dated 2009).

Assays:
[1] = tested on: Jurkat cell (ATCC TIB-152); assay: Jurkat cell apoptosis by Fas antibody, WST-1 method; assay type: cell-based; conditions: apoptosis using Fas antibody, WST-1; for IC50: Homo sapiens, Jurkat
Experimental: The […] inhibitory activity of the inhibitors was determined by subjecting Jurkat cell (ATCC TIB-152) to apoptosis using Fas antibody (Upstate Biotech 05-201) and by detecting the color change according to the WST-1 method known in Francoeur A. M. and Assalian A. (1996) Biochemica 3, 19-25 to observe the amount of alive Jurkat cells when the cells were treated by the inhibitor. Spectra MAX 340 Spectrometer of Molecular Device Co. was used at the absorbance wavelength of 440 nm.

[2] = molecular target: T1, caspase-8 (Homo sapiens, UniProt Q14790); assay: Caspase-8 inhibitory effect (fluorescent substrate AcDEVD-AFC); assay type: biochemical; conditions: 25° C., 50 μM AcDEVD-AFC, 2.1 nM caspase-8; for kinact/KI: pH 7.5, read-out: Caspase-8 Kobs/[I] (converted)
T1 construct: p10 and p20 subunits (Thornberry, N. A. et al, Nature, 1992, 356, 768) were expressed in E. coli; made in house; host or cells: E. coli
Experimental: Caspase-1 and caspase-8 known as cysteine proteases in the form of α2β2 were expressed, purified, and activated by modifying a method known in Thornberry, N. A. et al, Nature, 1992, 356, 768. Thornberry, N. A. Methods in Enzymology, 1994, 244, 615. Walker, N. P. C. et al. Cell, 1994, 78, 343, and caspase-9 was also purified by a similar method, and the inhibitory activity against them was tested. Briefly describing, p10 and p20 subunits (Thornberry, N. A. et al, Nature, 1992, 356, 768) were expressed in E. coli and purified by nickel column and anionic exchange chromatography to give caspase-1, caspase-8 and caspase-9. The fluorescent substrate AcYVAD-AFC for thus obtained caspase-1, AcDEVD-AFC for caspase-8, and AcLEHD-AFC for caspase-9 were used for determining specific activity of the synthesized inhibitors. The enzyme reaction was carried out at 25° C. with various concentrations of the inhibitors in a buffer solution containing 50 mM HEPES(pH 7.50), 10% (w/v) sucrose, 0.1% (w/v) CHAPS, 100 mM NaCl, 1 mM EDTA, and 10 mM DTT in the presence of 50 μM AcYVAD-AFC for 10 nM caspase-1, 50 μM AcDEVD-AFC for 2.1 nM caspase-8, and 150 μM AcLEHD-AFC for 200 nM caspase-9. The inhibitory constants Ki and Kobs of the inhibitors were determined by measuring the reaction velocity with the time lapse using a fluorescent spectrometer and by obtaining the initial rate constant. Ki was calculated from the Lineweaver Burk Plot, and Kobs from the following Equation 1. Kobs=−ln(1−At/Aoo)/t Equation 1
At means cleavate rate (%) at time t, and
Aoo means the maximum cleavage rate (%).
Spectra MAX GeminiXS Fluorescent Spectrometer of Molecular Device Co. was used at the excitation wavelength of 405 nm and the emission wavelength of […].

T1 sequence (Q14790 217-374 limits assumed, species assumed): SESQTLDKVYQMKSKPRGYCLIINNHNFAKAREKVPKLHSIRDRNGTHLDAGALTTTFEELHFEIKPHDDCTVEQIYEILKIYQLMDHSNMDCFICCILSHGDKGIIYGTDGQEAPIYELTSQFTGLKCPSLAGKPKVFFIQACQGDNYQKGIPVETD
T1 sequence (Q14790 385-479 limits assumed, species assumed): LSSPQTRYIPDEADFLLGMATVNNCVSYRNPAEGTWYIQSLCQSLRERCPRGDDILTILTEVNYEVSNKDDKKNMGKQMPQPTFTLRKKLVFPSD

CCC1(C(=O)NC(CC(=O)O)C(=O)CF)CC(c2cc(CC(C)C)ccn2)=NO1 (stereo not drawn) [Iaa10, 3-({[5-Ethyl-3-(4-isobutyl-2-pyridinyl)-4,5-dihydro-5-isoxazolyl]carbonyl}amino)-5-fluoro-4-oxopentanoic acid]
IC50 [1]: 1.02 µM
kinact/KI [2]: 2500 M⁻¹ s⁻¹

CCC1(C(=O)NC(CC(=O)O)C(=O)CF)CC(c2cc(C(C)(C)C)ccn2)=NO1 (stereo not drawn) [Iaa8, 3-[({3-[4-(tert-Butyl)-2-pyridinyl]-5-ethyl-4,5-dihydro-5-isoxazolyl}carbonyl)amino]-5-fluoro-4-oxopentanoic Acid]
IC50 [1]: 0.7 µM
kinact/KI [2]: 7500 M⁻¹ s⁻¹

CCC1(C(=O)NC(CC(=O)O)C(=O)CF)CC(c2ccnc3ccccc23)=NO1 (stereo not drawn) [Ijj, 3-({[5-Ethyl-3-(4-quinolinyl)-4,5-dihydro-5-isoxazolyl]carbonyl}amino)-5-fluoro-4-oxopentanoic acid]
IC50 [1]: 4.7 µM
kinact/KI [2]: 3170 M⁻¹ s⁻¹

CCC1(C(=O)NC(CC(=O)O)C(=O)CF)CC(c2cc3ccccc3s2)=NO1 (stereo not drawn) [Ikk, 3-({[3-(benzothiophen-2-yl)-5-ethyl-4,5-dihydro-5-isoxazolyl]carbonyl}amino)-5-fluoro-4-oxopentanoic acid]
IC50 [1]: 1.1 µM
kinact/KI [2]: 2000 M⁻¹ s⁻¹

CC(C)[C@@]1(C(=O)N[C@@H](CC(=O)O)C(=O)COc2cccc[n+]2C)CC(c2nccc3ccccc23)=NO1.O=S(=O)([O-])C(F)(F)F [Iaa25, 2-{[(3S)-4-carboxy-3-({[(5R)-5-isopropyl-3-(1-isoquinolinyl)-4,5-dihydro-5-isoxazolyl]carbonyl}amino)-2-oxobutyl]oxy}-1-methylpyridinium trifluoromethanesulfonate]
Jurkat cell IC50 [1]: No Activity
kinact/KI [2]: 2830 M⁻¹ s⁻¹

CC(C)c1ccccc1C1=NO[C@@](C(=O)NC(CC(=O)O)C(=O)CF)(C(C)C)C1 (stereo partly drawn) [Iaa4, 5-Fluoro-3-({[(5R)-5-isopropyl-3-(2-isopropylphenyl)-4,5-dihydro-5-isoxazolyl]carbonyl}amino)-4-oxopentanoic Acid]
IC50 [1]: 0.67 µM
kinact/KI [2]: 8330 M⁻¹ s⁻¹

CCC1(C(=O)N[C@@H](CC(=O)O)C(=O)COc2c(F)c(F)cc(F)c2F)CC(c2ccc3ccccc3c2)=NO1 (stereo partly drawn) [Iee, (3S)-3-({[5-ethyl-3-(2-naphthyl)-4,5-dihydro-5-isoxazolyl]carbonyl}amino)-4-oxo-5-(2,3,5,6-tetrafluorophenoxy)pentanoic acid]
IC50 [1]: 32.6 µM
kinact/KI [2]: 3000 M⁻¹ s⁻¹

C=CC(=O)[C@H](CC(=O)O)NC(=O)[C@]1(C(C)C)CC(c2nccc3ccccc23)=NO1 [Iaa22, (3S)-3-({[(5R)-5-isopropyl-3-(1-isoquinolinyl)-4,5-dihydro-5-isoxazolyl]carbonyl}amino)-4-oxo-5-hexenoic acid]
Caspase-8 Kobs/[I] [2]: No Activity

CCC1(C(=O)NC(CC(=O)O)C(=O)CF)CC(c2cc(C(C)=O)ccn2)=NO1 (stereo not drawn) [Iaa11, 3-({[3-(4-Acetyl-2-pyridinyl)-5-ethyl-4,5-dihydro-5-isoxazolyl]carbonyl}amino)-5-fluoro-4-oxopentanoic acid]
IC50 [1]: 31 µM
kinact/KI [2]: 1070 M⁻¹ s⁻¹

CCC1(C(=O)NC(CC(=O)O)C(=O)CF)CC(c2ccccc2C(C)C)=NO1 (stereo not drawn) [Iaa1, 3-({[5-Ethyl-3-(2-isopropylphenyl)-4,5-dihydro-5-isoxazolyl]carbonyl}amino)-5-fluoro-4-oxopentanoic acid]
IC50 [1]: 0.33 µM
kinact/KI [2]: 3000 M⁻¹ s⁻¹

CCC1(C(=O)NC(CC(=O)O)C(=O)CF)CC(c2c(C)c3ccccc3n2C)=NO1 (stereo not drawn) [Imm, 3-({[3-(1,3-Dimethyl-1H-indol-2-yl)-5-ethyl-4,5-dihydro-5-isoxazolyl]carbonyl}amino)-5-fluoro-4-oxopentanoic acid]
IC50 [1]: 2 µM
kinact/KI [2]: 2670 M⁻¹ s⁻¹

CC(C)[C@@]1(C(=O)NC(CC(=O)O)C(=O)CF)CC(c2cccc(C(C)(C)C)c2)=NO1 (stereo partly drawn) [Iaa5, 3-[({(5R)-3-[3-(tert-butyl)phenyl]-5-isopropyl-4,5-dihydro-5-isoxazolyl}carbonyl)amino]-5-fluoro-4-oxopentanoic acid]
IC50 [1]: 0.3 µM
kinact/KI [2]: 5000 M⁻¹ s⁻¹

CCC1(C(=O)NC(CC(=O)O)C(=O)CF)CC(c2ccc(C(C)(C)C)cc2)=NO1 (stereo not drawn) [Iaa3, 3-[({3-[4-(tert-Butyl)phenyl]-5-ethyl-4,5-dihydro-5-isoxazolyl}carbonyl)amino]-5-fluoro-4-oxopentanoic acid]
IC50 [1]: 2.65 µM
kinact/KI [2]: 2330 M⁻¹ s⁻¹

CC(C)C1(C(=O)NC(CC(=O)O)C(=O)CF)CC(c2cc(-c3ccccc3)ccn2)=NO1 (stereo not drawn) [Iaa17, 5-Fluoro-3-({[5-isopropyl-3-(4-phenyl-2-pyridinyl)-4,5-dihydro-5-isoxazolyl]carbonyl}amino)-4-oxopentanoic Acid]
IC50 [1]: 1.14 µM
kinact/KI [2]: 3000 M⁻¹ s⁻¹

CC(C)[C@@]1(C(=O)N[C@H](CC(=O)O)C(=O)CF)CC(c2nccc3ccccc23)=NO1 [Iii-2, (3R)-5-fluoro-3-({[(5R)-5-isopropyl-3-(1-isoquinolinyl)-4,5-dihydro-5-isoxazolyl]carbonyl}amino)-4-oxopentanoic acid]
kinact/KI [2]: 7830 M⁻¹ s⁻¹

CCC1(C(=O)N[C@@H](CC(=O)O)C(=O)COc2c(F)c(F)cc(F)c2F)CC(c2c(C)c3ccccc3n2C)=NO1 (stereo partly drawn) [Ill, (3S)-3-({[3-(1,3-dimethyl-1H-indol-2-yl)-5-ethyl-4,5-dihydro-5-isoxazolyl]carbonyl}amino)-4-oxo-5-(2,3,5,6-tetrafluorophenoxy)pentanoic acid]
IC50 [1]: 39.2 µM
kinact/KI [2]: 2170 M⁻¹ s⁻¹

CCC1(C(=O)N[C@@H](CC(=O)O)C(=O)COc2ccccn2)CC(c2ccccc2C(C)C)=NO1 (stereo partly drawn) [Iaa24, (3S)-3-({[5-ethyl-3-(2-isopropylphenyl)-4,5-dihydro-5-isoxazolyl]carbonyl}amino)-4-oxo-5-(2-pyridinyloxy)pentanoic Acid]
Caspase-8 Kobs/[I] [2]: No Activity

CCC1(C(=O)NC(CC(=O)O)C(=O)CF)CC(c2cc(C3CC3)ccn2)=NO1 (stereo not drawn) [Iaa12, 3-({[3-(4-Cyclopropyl-2-pyridinyl)-5-ethyl-4,5-dihydro-5-isoxazolyl]carbonyl}amino)-5-fluoro-4-oxopentanoic acid]
IC50 [1]: 0.7 µM
kinact/KI [2]: 3170 M⁻¹ s⁻¹

CC[C@@]1(C(=O)NC(CC(=O)O)C(=O)CF)CC(c2ccc3ccccc3n2)=NO1 (stereo partly drawn) [Ivv, 3-({[(5S)-5-ethyl-3-(2-quinolinyl)-4,5-dihydro-5-isoxazolyl]carbonyl}amino)-5-fluoro-4-oxopentanoic acid]
IC50 [1]: 0.15 µM
kinact/KI [2]: 25000 M⁻¹ s⁻¹

CCC1(C(=O)N[C@@H](CC(=O)O)C(=O)COC(=O)c2c(Cl)cccc2Cl)CC(CCc2cccc3ccccc23)=NO1 (stereo partly drawn) [Ioo, (3S)-5-[(2,6-dichlorobenzoyl)oxy]-3-[({5-ethyl-3-[2-(1-naphthyl)ethyl]-4,5-dihydro-5-isoxazolyl}carbonyl)amino]-4-oxopentanoic acid]
IC50 [1]: 50 µM
kinact/KI [2]: 333 M⁻¹ s⁻¹

CCC1(C(=O)N[C@@H](CC(=O)O)C(=O)COc2c(F)c(F)cc(F)c2F)CC(c2nccc3ccccc23)=NO1 (stereo partly drawn) [Iff, (3S)-3-({[5-ethyl-3-(1-isoquinolinyl)-4,5-dihydro-5-isoxazolyl]carbonyl}amino)-4-oxo-5-(2,3,5,6-tetrafluorophenoxy)pentanoic acid]
IC50 [1]: 1.2 µM
kinact/KI [2]: 8330 M⁻¹ s⁻¹

CC(C)[C@@]1(C(=O)N[C@H](/C=C/S(C)(=O)=O)CC(=O)O)CC(c2nccc3ccccc23)=NO1 [Iss, (3S,4E)-3-({[(5R)-5-isopropyl-3-(1-isoquinolinyl)-4,5-dihydro-5-isoxazolyl]carbonyl}amino)-5-(methylsulfonyl)-4-pentenoic acid]
Jurkat cell IC50 [1]: No Activity

CCOC(=O)/C=C/[C@H](CC(=O)O)NC(=O)[C@]1(C(C)C)CC(c2nccc3ccccc23)=NO1 [Irr, (3S,4E)-6-ethoxy-3-({[(5R)-5-isopropyl-3-(1-isoquinolinyl)-4,5-dihydro-5-isoxazolyl]carbonyl}amino)-6-oxo-4-hexenoic Acid]
Jurkat cell IC50 [1]: No Activity

CC(C)[C@@]1(C(=O)N[C@@H](CC(=O)O)C(=O)CF)CC(c2nccc3ccccc23)=NO1 [Iii-1, (3S)-5-fluoro-3-({[(5R)-5-isopropyl-3-(1-isoquinolinyl)-4,5-dihydro-5-isoxazolyl]carbonyl}amino)-4-oxopentanoic acid]
kinact/KI [2]: 383000 M⁻¹ s⁻¹
